Measured values reported in patent publication US7531320B2, “Modulation of β-catenin/TCF-activated transcription” (priority 2003, dated 2009).

Assays:
[1] = tested on: SW480 cells; test: cDNA microarray analysis (Clontech Atlas Human Cancer 1.2 Array) of SW480 cells; conditions: 25 μM; for Ratio, fos-related antigen (FRA1): gene code A13c; for Ratio, epidermal growth factor receptor (EGFR): gene code A12d; for Ratio, placental calcium-binding protein; calvasculin: gene code B07l; for Ratio, proliferating cyclic nuclear antigen (PCNA); cyclin: gene code C13e; for Ratio, growth arrest &DNA-damage-inducible protein 153 (GADD153): gene code C05d; for Ratio, integrin alpha 3 (ITGA3); galactoprotein B3 (GAPB3): gene code D03e; for Ratio, low-affinity nerve growth factor receptor (NGF receptor; NGFR): gene code D03k; for Ratio, histone H4: gene code D08b; for Ratio, nuclear protein: gene code D09b; for Ratio, interleukin-1 beta precursor (IL-1; IL1B); catabolin: gene code E07f; for Ratio, macrophage inhibitory cytokine 1 (MIC1): gene code E09e; for Ratio, neutrophil gelatinase-associated lipocalin precursor (NGAL): gene code F04i; for Ratio, early growth response alpha (EGR alpha): gene code F06n; for Ratio, gravin: gene code F09g; for Ratio, glycyl tRNA synthetase: gene code F13k
[2] = tested on: NFAT reporter construct; test: NFAT reporter assay in stably transfected Jurkat cells; format: cell-based
Procedure: FIG. 1. COMPOUND 1 inhibits β-catenin/TCF transcription. • A(i) and A(ii). Structures of COMPOUND 1, COMPOUND 2, COMPOUND 3, COMPOUND 4, and COMPOUND 5. • B(i) and B(ii). […] SW480 cells (10^5), (FIG. 1B(i)), were transfected with β-catenin/TCF luciferase construct. Cells were treated with COMPOUND 1 (1-64 μM). 24 hours post treatment lysates were prepared and subjected to dual luciferase assay. The data is represented in different form in FIG. 1B(ii). • C. COMPOUND 1 has no effect on NFAT reporter construct. Stably transfected Jurkat cells, right panel, with an NFAT reporter construct, were stimulated with PMA (10 ng/ml)/lonomycin (1 μg/ml), and treated with COMPOUND 1 (0.781-50 μM). 24 hours post treatment lysates were prepared and subjected to dual luciferase assay. All experiments were performed in duplicate and the values plotted as means +/−standard deviation. • D. CBP is the molecular target of COMPOUND 1. Nuclear extracts of SW480 cells were incubated with streptavidin-agarose beads coated with COMPOUND 2 (25 μM). Beads were washed 3 times and the eluted were subjected to gel electrophoresis and immunoblotting, with anti-CBP antibodies. […] The lysates were desalted using G-25 1 cc columns (Pharmacia) to remove the unbound ^14C-labeled-COMPOUND 1, and ^14C-labeled-COMPOUND 1 incorporation was measured.

O=C1C(Cc2ccc(O)cc2)N2C(=O)CCN(C(=O)NCc3ccccc3)C2CN1Cc1cccc2ccccc12 (stereo not drawn) [COMPOUND 1]
Ratio, WSL protein + TRAMP + Apo-3 + death domain receptor 3 (DDR3) ([1]; 8-hour treatment, […]): 1.84 | Ratio, integrin beta 4 (ITGB4); CD104 antigen ([1]; 8-hour treatment, […]): 1.84 | Ratio, G2/mitotic-specific cyclin B1 (CCNB1) ([1]; 8-hour treatment, gene code A05i): 0.57 | Ratio, matrix metalloproteinase 11 (MMP11); stromelysin 3 ([1]; 8-hour treatment, gene code A10f): 0.77 | Ratio, fos-related antigen (FRA1) ([1]; 8-hour treatment): 2.48 | Ratio, brain glucose transporter 3 (GTR3) ([1]; 8-hour treatment, gene code A14n): 1.94 | Ratio, epidermal growth factor receptor (EGFR) ([1]; 8-hour treatment): 4.20 | Ratio, ERBB-3 receptor protein-tyrosine kinase precursor ([1]; 8-hour treatment, gene code A14d): 1.36 | Ratio, linker for activation of T-cells (LAT) ([1]; 8-hour treatment, gene code B01m): 0.74 | Ratio, placental calcium-binding protein; calvasculin ([1]; 8-hour treatment): 0.85 | Ratio, ras-related C3 botulinum toxin substrate 2; p21-rac2 ([1]; 8-hour treatment, gene code B12j): 0.62 | Ratio, retinoic acid receptor beta (RXR-beta; RXRB) ([1]; 8-hour treatment, gene code B14n): 0.74 | Ratio, PTPCAAX1 nuclear tyrosine phosphatase (PRL-1) ([1]; 8-hour treatment, gene code B08h): 2.56 | Ratio, MCM4 DNA replication licensing factor; CDC21 homolog ([1]; 8-hour treatment, gene code C06f): 0.38 | Ratio, growth arrest &DNA-damage-inducible protein (GADD45) ([1]; 8-hour treatment, gene code C09i): 5.36 | Ratio, proliferating cyclic nuclear antigen (PCNA); cyclin ([1]; 8-hour treatment): 0.38 | Ratio, growth arrest &DNA-damage-inducible protein 153 (GADD153) ([1]; 8-hour treatment): 6.92 | Ratio, DNA-binding protein CPBP ([1]; 8-hour treatment, gene code D03b): 1.47 | Ratio, integrin alpha 3 (ITGA3); galactoprotein B3 (GAPB3) ([1]; 8-hour treatment): 2.82 | Ratio, low-affinity nerve growth factor receptor (NGF receptor; NGFR) ([1]; 8-hour treatment): 1.77 | Ratio, histone H4 ([1]; 8-hour treatment): 0.73 | Ratio, integrin alpha 7B precursor (IGA7B) ([1]; 8-hour treatment, gene code D08e): 1.69 | Ratio, paxillin ([1]; 8-hour treatment, gene code D08f): 2.14 | Ratio, nuclear protein ([1]; 8-hour treatment): 2.11 | Ratio, T-cell surface glycoprotein CD3 epsilon subunit precursor ([1]; 8-hour treatment, gene code D11c): 0.60 | Ratio, interleukin-13 precursor (IL-13); NC30 ([1]; 8-hour treatment, gene code E01g): 0.88 | Ratio, interleukin-1 beta precursor (IL-1; IL1B); catabolin ([1]; 8-hour treatment): 1.77 | Ratio, macrophage inhibitory cytokine 1 (MIC1) ([1]; 8-hour treatment): 6.94 | Ratio, nerve growth factor-inducible PC4 homolog ([1]; 8-hour treatment, gene code E03d): 3.27 | Ratio, neutrophil gelatinase-associated lipocalin precursor (NGAL) ([1]; 8-hour treatment): 5.85 | Ratio, ornithine decarboxylase ([1]; 8-hour treatment, gene code F05e): 1.82 | Ratio, early growth response alpha (EGR alpha) ([1]; 8-hour treatment): 3.15 | Ratio, ribonucleoside-diphosphate reductase M2 subunit ([1]; 8-hour treatment, gene code F07e): 0.53 | Ratio, type I cytoskeletal 18 keratin; cytokeratin 18 (K18) ([1]; 8-hour treatment, gene code F08f): 1.59 | Ratio, gravin ([1]; 8-hour treatment): 6.40 | Ratio, glycyl tRNA synthetase ([1]; 8-hour treatment): 2.23 | Ratio, proto-oncogene c-jun; transcription factor AP-1 ([1]; 24-hour treatment, gene code A01c): 1.34 | Ratio, EB1 protein ([1]; 24-hour treatment, gene code A02b): 0.52 | Ratio, c-myc binding protein MM-1 ([1]; 24-hour treatment, gene code A03g): 0.43 | Ratio, G1/S-specific cyclin D1 (CCND1); cyclin PRAD1; bcl-1 oncogene ([1]; 24-hour treatment, gene code A06i): 0.47 | Ratio, cyclin-dependent kinase regulatory subunit 1 (CKS1) ([1]; 24-hour treatment, gene code A10k): 0.28 | Ratio, cyclin-dependent kinase regulatory subunit (CKS2) ([1]; 24-hour treatment, gene code A11k): 0.40 | Ratio, fos-related antigen (FRA1) ([1]; 24-hour treatment): 1.99 | Ratio, epidermal growth factor receptor (EGFR) ([1]; 24-hour treatment): 2.51 | Ratio, ADP/ATP carrier protein ([1]; 24-hour treatment, gene code B02a): 0.21 | Ratio, 14-3-3 protein sigma; stratifin; epithelial cell marker protein 1 ([1]; 24-hour treatment, gene code B03m): 0.45 | Ratio, placental calcium-binding protein; calvasculin ([1]; 24-hour treatment): 0.50 | Ratio, ets domain protein elk-3; NET; SRF accessory protein 2 (SAP2) ([1]; 24-hour treatment, gene code C01j): 1.71 | Ratio, tumor necrosis factor type 1 receptor associated protein (TRAP1) ([1]; 24-hour treatment, gene code C04b): 0.73 | Ratio, MCM2 DNA replication licensing factor; nuclear protein BM28 ([1]; 24-hour treatment, gene code C05f): 0.23 | Ratio, proliferating cyclic nuclear antigen (PCNA); cyclin ([1]; 24-hour treatment): 0.33 | Ratio, HHR23A; UV excision repair protein protein RAD23A ([1]; 24-hour treatment, gene code C04h): 0.36 | Ratio, growth arrest &DNA-damage-inducible protein 153 (GADD153) ([1]; 24-hour treatment): 3.66 | Ratio, integrin alpha 3 (ITGA3); galactoprotein B3 (GAPB3) ([1]; 24-hour treatment): 2.99 | Ratio, low-affinity nerve growth factor receptor (NGF receptor; NGFR) ([1]; 24-hour treatment): 2.50 | Ratio, integrin beta 4 (ITGB4); CD104 antigen ([1]; 24-hour treatment, gene code D06e): 2.68 | Ratio, cytosolic superoxide dismutase 1 (SOD1) ([1]; 24-hour treatment, gene code D06m): 0.45 | Ratio, high mobility group protein HMG2 ([1]; 24-hour treatment, gene code D07b): 0.35 | Ratio, glutathione synthetase (GSH synthetase; GSH-S) ([1]; 24-hour treatment, gene code D07m): 0.34 | Ratio, histone H4 ([1]; 24-hour treatment): 0.27 | Ratio, nuclear protein ([1]; 24-hour treatment): 0.49 | Ratio, chromatin assembly factor 1 p48 subunit (CAF1 p48 subunit) ([1]; 24-hour treatment, gene code D12a): 0.70 | Ratio, N-sam; fibroblast growth factor receptor1 precursor (FGFR1) ([1]; 24-hour treatment, gene code D08h): 10.39 | Ratio, MHC class I truncated HLA G lymphocyte antigen ([1]; 24-hour treatment, gene code E02m): 1.36 | Ratio, 78-kDa glucose regulated protein precursor (GRP 78) ([1]; 24-hour treatment, gene code E02n): 2.35 | Ratio, PDGF associated protein ([1]; 24-hour treatment, gene code E04i): 0.45 | Ratio, interleukin-1 beta precursor (IL-1; IL1B); catabolin ([1]; 24-hour treatment): 1.98 | Ratio, macrophage inhibitory cytokine 1 (MIC1) ([1]; 24-hour treatment): 2.79 | Ratio, CD59 glycoprotein precursor ([1]; 24-hour treatment, gene code E11l): 0.66 | Ratio, fatty acid synthase ([1]; 24-hour treatment, gene code F03e): 0.34 | Ratio, vimentin (VIM) ([1]; 24-hour treatment, gene code F04g): 1.34 | Ratio, neutrophil gelatinase-associated lipocalin precursor (NGAL) ([1]; 24-hour treatment): 23.85 | Ratio, early growth response alpha (EGR alpha) ([1]; 24-hour treatment): 1.79 | Ratio, gravin ([1]; 24-hour treatment): 8.46 | Ratio, inosine-5′-monophosphate dehydrogenase 2 ([1]; 24-hour treatment, gene code F10c): 0.68 | Ratio, BENE ([1]; 24-hour treatment, gene code F12l): 2.07 | Ratio, elongation factor 2 (EF2) ([1]; 24-hour treatment, gene code F13j): 0.55 | Ratio, glycyl tRNA synthetase ([1]; 24-hour treatment): 2.02 | Ratio, TRAM protein ([1]; 24-hour treatment, gene code F09h): 3.25 | Ratio, L-lactate dehydrogenase H subunit (LDHB) ([1]; 24-hour treatment, gene code F06d): 0.40 | Ratio, brain-specific tubulin alpha 1 subunit (TUBA1) ([1]; 24-hour treatment, gene code G29): 0.72 | Ratio, HLA class I histocompatibility antigen C-4 alpha subunit (HLAC) ([1]; 24-hour treatment, gene code G31): 1.29 | Ratio, 23-kDa highly basic protein; 60S ribosomal protein L13A ([1]; 24-hour treatment, gene code G45): 0.65 | Genes analyzed down-regulated by greater than 50% ([1]; 8 hours): ~0.3% | Genes analyzed upregulated more than 2-fold ([1]; 8 hours): ~2% | Effect on NFAT reporter construct ([2]; Jurkat cells, PMA/Ionomycin stimulated, 0.781-50 μM, 24 hours): no effect | Selectivity versus other CBP-dependent reporters ([2]; including NFAT, CRE and AP-1 (CRE, AP-1 data not shown)): very good selectivity
